According to PubChem BioAssay AID1053145 (Broad Institute, 2014):
Calls of active or inactive are those of the source. The rule behind the calls is not given here.

System: HepG2 viability, CellTiter-Glo ATP luminescence, overnight
Assay: cytotoxicity in HepG2 hepatoma cells – cell-based, ATP luminescence, cherry-pick, cytotoxicity control for Trib1 inducer project, dose response (AID 1053145)

SMILES	AC50
CN1C(=O)c2cc(NC(=O)c3ccc(C(F)(F)F)cc3)ccc2OC[C@@H]2O[C@H](CC(=O)NC3Cc4ccccc4C3)CC[C@@H]21	> 25 µM (inactive)
CN1C(=O)c2cc(NC(=O)c3ccc(C(F)(F)F)cc3)ccc2OC[C@@H]2O[C@@H](CC(=O)NC3Cc4ccccc4C3)CC[C@@H]21	> 25 µM (inactive)
